Reference: patent publication US6921773B2, “Use of α-1AR subtype-selective drugs in patients with acute myocardial infarction” (Duke University, priority 1999, dated 2005)
“Also recorded” adds a separate entry of the source.

What was measured:
a1AR subtypes = experiment: Competition analysis against [125I]HEAT in human vessel membranes; format: binding; settings: mammary, renal, splenic arteries, and vena cava; n=3 experiments per vessel
Description: (§1) Vessels were weighed, lumen diameter measured, pulverized under liquid nitrogen, and suspended in cold lysis buffer (5 mmol/L Tris HCl and 5 mmol/L EDTA, pH 7.4) with protease inhibitors.^14 After lysate preparation, membranes were resuspended in cold binding buffer (150 mmol/L NaCl, 50 mmol/L Tris·HCl, 5 mmol/L EDTA, with protease inhibitors, pH 7.4) as previously described;^14 protein concentration was determined using the bicinchoninic acid method (Pierce, Rockford, Ill.). Full saturation binding isotherms were performed in selected human vessels (aorta, mammary artery, saphenous vein) in 250 μl binding buffer (20-60 μg vessel membrane protein) using the α1-adrenergic antagonist [^125I]HEAT(2-[b-(hydroxy-3[^125I]iodophenyl)ethyl-aminomethyl]-tetralone; DuPont-NEN; Boston, Mass.) as previously described.^14 To measure total a1AR density in all vessels, a saturating concentration (300 pmol/L) of the [^125I]HEAT was used.

human mammary artery = experiment: Phenylephrine-induced mammary artery contraction (isometric tension, organ chambers), with or without a1AR antagonists; settings: for Shift of phenylephrine dose response by antagonist: prazosin 10^-9 and 10^-8 mol/L, 5-MU/spiperone/BMY7378 10^-8 and 10^-7 mol/L; for Kb: read-out: Potency in inhibiting mammary artery contraction (pKB) (converted)
From the text: Mammary arteries were immersed in cold oxygenated Krebs-Ringer bicarbonate solution (118.3 mmol/L NaCl, 4.7 mmol/L KCl, 1.2 mmol/L MgSO4, 1.2 mmol/L KHPO4, […], 25 mmol/L NaHCO3, […], […]), cleaned of loose connective tissue, cut into 4-5 mm long rings, and suspended for isometric tension recording in organ chambers. One stirrup was anchored to the chamber and the other connected to a strain gauge (FT-102) for measurement of isometric force (MacLab, CB Sciences; Milford, Mass.). All concentration effect curves were performed at optimum resting tone (˜3 g in pilot studies). Contractile response to 60 mmol/L KCI was performed; this determined vessel viability and facilitated normalization of phenylephrine response across vessel rings. Phenylephrine dose-response curves were generated (10^−4-10^−9mol/L) in ½ log order concentrations in the absence/presence of competitive a1AR antagonists. […] Antagonist potency was expressed as the dissociation constant (KB) determined from pKB=log[B]log(DR-1), where [B] is antagonist concentration and DR the dose ratio produced by antagonist. Dose response curves were analyzed using DOSE RESPONSE software (MacLab, CB Sciences).

a1AR = experiment: [125I]HEAT saturation binding isotherms in human vessel membranes; settings: n=2-4
Description: as §1

[1] = elderly patients; compared with alfuzosin (non-selective); cited from earlier work
[2] = Homo sapiens, phenylephrine dose response curves, mean±SEM

With `COc1ccccc1N1CCN(CCCNc2c(C)c(=O)n(C)c(=O)n2C)CC1` [5-MU] the “Number of binding sites in competition analysis” value (a1AR subtypes) was “binds to two sites”, the “Potency in inhibiting mammary artery contraction (pKB)” value (human mammary artery; phenylephrine dose response curves, mean±SEM) was 8.4±0.63 and the “Shift of phenylephrine dose response by antagonist” value (from here on “Shift”) (human mammary artery) was “concentration dependent shift in potency without reducing maximum response”.
With `COc1ccccc1N1CCN(CCN2C(=O)CC3(CCCC3)CC2=O)CC1` [BMY7378] the “Shift” value (human mammary artery) was “does not produce a significant shift; also recorded: does not produce a shift in dose response”.
Compound `CNC[C@H](O)c1cccc(O)c1` [Phenylephrine] has an EC50 (human mammary artery; Homo sapiens, 10 mammary arteries, mean±SEM, read-out: pD2 of isometric contraction (converted)) of 1000 nM.
For `O=C1c2ccccc2CCC1CNCCc1ccc(O)c(I)c1` (stereo not shown) [^125I-HEAT, 2-[b-(hydroxy-3[^125I]iodophenyl)ethyl-aminomethyl]-tetralone], the Kd (a1AR; aorta) was 0.13 ± 0.0002 nM, the Kd (a1AR; mammary artery) was 0.13 ± 0.0031 nM and the Kd (a1AR; saphenous vein) was 0.13 ± 0.00065 nM.
With `COc1cc2nc(N3CCN(C(=O)c4ccco4)CC3)nc(N)c2cc1OC` [prazosin] the Kb (human mammary artery; [2]) was 0.631 nM and the “Shift” value (human mammary artery) was “concentration dependent shift in potency without reducing maximum response”.
In the case of `O=C(CCCN1CCC2(CC1)C(=O)NCN2c1ccccc1)c1ccc(F)cc1` [spiperone], the Kb (human mammary artery; [2]) is reported as 2.51 nM and the “Shift” value (human mammary artery) is reported as “concentration dependent shift in potency without reducing maximum response”.
For `CCOc1ccccc1OCCN[C@H](C)Cc1ccc(OC)c(S(N)(=O)=O)c1` [tamsulosin], the Blood pressure perturbation [1] is given as “less blood pressure perturbation”.
